The values below come from ChEMBL document CHEMBL1134501, “Structure-activity studies for a novel series of bicyclic substituted hexahydrobenz[e]isoindole alpha1A adrenoceptor antagonists as potential agents for the symptomatic treatment of benign prostatic hyperplasia” (J Med Chem, 2001).

In assay [1] the test system is Canis familiaris. In words: In vivo antagonist dissociation constant in intaraurethral pressure model in dogs. The following applies: Canis lupus familiaris, read-out: pA2 (converted).
Assay [2] deals with T1, Alpha-1D adrenergic receptor (Rattus norvegicus, UniProt P23944).
T1 sequence (P23944 whole entry): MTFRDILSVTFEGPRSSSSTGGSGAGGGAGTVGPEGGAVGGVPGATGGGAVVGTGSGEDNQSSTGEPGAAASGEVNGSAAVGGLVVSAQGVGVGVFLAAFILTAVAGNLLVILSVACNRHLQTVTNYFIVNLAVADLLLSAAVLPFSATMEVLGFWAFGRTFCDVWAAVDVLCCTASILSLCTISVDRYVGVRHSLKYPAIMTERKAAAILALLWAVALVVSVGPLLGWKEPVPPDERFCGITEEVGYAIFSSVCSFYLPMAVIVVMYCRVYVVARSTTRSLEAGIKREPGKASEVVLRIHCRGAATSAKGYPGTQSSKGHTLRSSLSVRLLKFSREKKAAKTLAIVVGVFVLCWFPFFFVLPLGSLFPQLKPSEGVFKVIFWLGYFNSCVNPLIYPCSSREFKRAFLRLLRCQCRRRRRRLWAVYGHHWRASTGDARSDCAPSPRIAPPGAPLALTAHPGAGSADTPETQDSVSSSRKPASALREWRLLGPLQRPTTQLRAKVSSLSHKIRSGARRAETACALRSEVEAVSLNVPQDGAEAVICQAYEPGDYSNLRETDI
In words: Binding affinity to rat alpha-1D adrenergic receptor expressed in LTK cells. The class given is cell-based.

Assay [3] addresses T2, Alpha-1A adrenergic receptor (Rattus norvegicus, UniProt P43140).
T2 sequence (P43140 whole entry): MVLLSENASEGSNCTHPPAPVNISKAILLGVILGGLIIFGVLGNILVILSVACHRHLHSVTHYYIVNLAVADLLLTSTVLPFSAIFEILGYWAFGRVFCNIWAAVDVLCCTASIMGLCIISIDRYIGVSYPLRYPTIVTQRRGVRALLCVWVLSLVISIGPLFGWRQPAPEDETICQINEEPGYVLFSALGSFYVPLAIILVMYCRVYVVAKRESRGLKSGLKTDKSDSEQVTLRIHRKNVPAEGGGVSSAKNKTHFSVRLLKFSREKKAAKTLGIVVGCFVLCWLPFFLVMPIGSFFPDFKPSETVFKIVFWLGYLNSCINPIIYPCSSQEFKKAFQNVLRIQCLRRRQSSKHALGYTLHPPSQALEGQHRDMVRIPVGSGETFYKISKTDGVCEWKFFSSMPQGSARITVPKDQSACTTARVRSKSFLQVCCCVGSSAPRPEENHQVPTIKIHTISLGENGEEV
Nature of the assay: Binding affinity to alpha-1A adrenergic receptor in rat submaxillary gland. The class given is tissue-based.

The species entered for assay [4] is Cricetulus griseus. In words: Selectivity ratio (alpha-1B/alpha-1A) of the compound.

Turning to `CCOc1ccccc1OCCN[C@H](C)Cc1ccc(OC)c(S(N)(=O)=O)c1` [TAMSULOSIN], the Kb in assay [1] was 1.35 nM.

As to `COc1cccc2c1CC[C@H]1CN(CCn3c(=O)[nH]c4c(C)csc4c3=O)C[C@@H]21`, the Ki (usually a measure of affinity in units of concentration, obtained from inhibition or displacement) in assay [2] was found to be 0.71 nM; in assay [3] it was 0.85 nM.

`COc1ccc2[nH]c(=O)n(CCN3C[C@@H]4CCc5c(OC)cccc5[C@@H]4C3)c(=O)c2c1`: the Ki in assay [2] is 1.13 nM; in assay [3], 1.02 nM. For the same molecule, the Ratio in assay [4] was found to be 3.68.

Regarding `COc1cccc2c1CC[C@H]1CN(CCn3c(=O)[nH]c4sccc4c3=O)C[C@@H]21`, the inhibition constant Ki turned out to be 1.01 nM in assay [2] and 1.03 nM in assay [3]. In addition, the Ratio in assay [4] worked out at 2.04.

For `COc1cccc2c1CC[C@H]1CN(CCn3c(=O)[nH]c4c(C)cc(C)cc4c3=O)C[C@@H]21`, the Ki in assay [2] came out at 2.86 nM; in assay [3], 2.73 nM. For the same molecule, the Ratio in assay [4] was found to be 5.96.

Turning to `COc1cc2c(cc1OC)C(=O)N(CCN1C[C@@H]3CCc4c(OC)cccc4[C@@H]3C1)CN2`, the Ki in assay [2] stood at 72 nM; in assay [3] it was 12.9 nM. Further, the Ratio in assay [4] was 7.4.

For the molecule `COc1cccc2c1CC[C@H]1CN(CCn3c(=O)[nH]c4c(C(C)C)c(OC)sc4c3=O)C[C@@H]21`, the values for the inhibition constant Ki in assay [2] and in assay [3] were 1.5 nM and 0.41 nM, respectively. In assay [4], the Ratio is 5.6.

In the case of `COc1cccc2c1CC[C@H]1CN(CCn3c(=O)[nH]c4ccccc4c3=O)C[C@@H]21`, the inhibition constant Ki amounted to 0.62 nM in assay [2] and 0.67 nM in assay [3]. Also, in assay [4], the Ratio stood at 1.73.

On to `COc1cccc2c1CC[C@H]1CN(CCn3c(=O)[nH]c4c(C)c(C)ccc4c3=O)C[C@@H]21`, for which the inhibitory constant (Ki) in assay [2] amounted to 0.89 nM; in assay [3], 0.09 nM. Besides, in assay [4], the Ratio was 14.6.

Take `COc1cccc2c1CC[C@H]1CN(CCn3c(=O)[nH]c4ccncc4c3=O)C[C@@H]21`: the inhibition constant (Ki) was 2.87 nM in assay [2] and 6.8 nM in assay [3]. In assay [4], the Ratio stood at 1.55.

Turning to `COc1cc2c(=O)n(CCN3C[C@@H]4CCc5c(OC)cccc5[C@@H]4C3)c(=O)n(C)c2cc1OC`, the inhibition constant (Ki) in assay [2] stood at 3.71 nM; in assay [3] it was 0.25 nM. Further, the Ratio in assay [4] came to 13.2.

In the case of `COc1cccc2c1CC[C@H]1CN(CCn3c(=O)[nH]c4cccc(C)c4c3=O)C[C@@H]21`, the figures for the inhibition constant (Ki) in assay [2] and in assay [3] were 1.13 nM and 1.15 nM, respectively. In assay [4], the Ratio stood at 0.9.

Regarding `COc1cc2nc(N3CCN(C(=O)C4CCCO4)CC3)nc(N)c2cc1OC` (stereo not given) [TERAZOSIN], in assay [1], the Kb is 95.5 nM.

On to `COc1cccc2c1CC[C@H]1CN(CCn3c(=O)[nH]c4c(-c5ccccc5)csc4c3=O)C[C@@H]21`, for which the values for the Ki in assay [2] and in assay [3] were 0.66 nM and 0.33 nM, respectively. Besides, the Ratio in assay [4] amounted to 1.

`COC(=O)c1ccc2c(=O)n(CCN3C[C@@H]4CCc5c(OC)cccc5[C@@H]4C3)c(=O)[nH]c2c1`: the Ki in assay [2] was 0.77 nM; in assay [3], 0.27 nM. The Ratio in assay [4] was found to be 6.07.

With `COc1cccc2c1CC[C@H]1CN(CCn3c(=O)[nH]c4cnccc4c3=O)C[C@@H]21`, the inhibition constant Ki in assay [2] was determined as 1.78 nM; in assay [3], 1.41 nM. For the same molecule, the Ratio in assay [4] was determined as 2.19.

As to `COc1cc(N)c(C(=O)NCCN2C[C@@H]3CCc4c(OC)cccc4[C@@H]3C2)cc1OC`, the inhibition constant Ki was 32.7 nM in assay [2] and 3.75 nM in assay [3]. The Ratio in assay [4] was 7.8.

In turn, `COc1cc2[nH]c(=O)n(CCN3C[C@@H]4CCc5c(OC)cccc5[C@@H]4C3)c(=O)c2cc1OC` registered an inhibition constant (Ki) in assay [2] of 1.4 nM.

As to `COc1cccc2c1CC[C@H]1CN(CCn3c(=O)[nH]c4cscc4c3=O)C[C@@H]21`, the Ki in assay [2] amounted to 0.52 nM; in assay [3] it was 0.48 nM. Further, the Ratio in assay [4] was found to be 2.1.

`COc1cccc2c1CC[C@H]1CN(CCn3c(=O)[nH]c4ccsc4c3=O)C[C@@H]21`: the inhibition constant (Ki) in assay [2] came out at 0.92 nM; in assay [3], 1.39 nM.

`COc1cccc2c1CC[C@H]1CN(CCn3c(=O)[nH]c4cc(C)c(C)cc4c3=O)C[C@@H]21`: the Ki in assay [2] was 0.73 nM; in assay [3], 1.38 nM. Moreover, in assay [4], the Ratio turned out to be 2.94.

As to `COc1cc2c(cc1OC)NCN(CCN1C[C@@H]3CCc4c(OC)cccc4[C@@H]3C1)C2`, the inhibitory constant (Ki) in assay [2] is 189 nM; in assay [3] it was 62.2 nM. Further, in assay [4], the Ratio was 1.01.

Turning to `COc1cccc2c1CC[C@H]1CN(CCn3c(=O)[nH]c4c(C)c(OC)sc4c3=O)C[C@@H]21`, the Ki stood at 1.45 nM in assay [2] and 1.09 nM in assay [3]. Moreover, the Ratio in assay [4] came to 6.5.

For the molecule `COc1cc2[nH]c(=O)n(CCN3C[C@@H]4CCc5c(OC)cccc5[C@@H]4C3)c(=O)c2s1`, the inhibition constant (Ki) in assay [2] amounted to 0.24 nM; in assay [3], 0.04 nM. For the same molecule, in assay [4], the Ratio amounted to 18.

On to `COc1cccc2c1CC[C@H]1CN(CCn3c(=O)[nH]c4cccc(Cl)c4c3=O)C[C@@H]21`, for which the Ki came to 0.69 nM in assay [2] and 0.71 nM in assay [3]. Besides, in assay [4], the Ratio is 1.31.

In the case of `COc1cccc2c1CC[C@H]1CN(CCn3c(=O)[nH]c4cc(NC(C)=O)ccc4c3=O)C[C@@H]21`, the inhibition constant (Ki) in assay [2] was 0.41 nM; in assay [3], 0.43 nM. Further, the Ratio in assay [4] was found to be 1.95.

As to `COc1cccc2c1CC[C@H]1CN(CCn3c(=O)[nH]c4cccnc4c3=O)C[C@@H]21`, the values for the Ki in assay [2] and in assay [3] were 2.5 nM and 3.58 nM, respectively. For the same molecule, in assay [4], the Ratio amounted to 2.29.

As to `COc1cc2[nH]c(=O)n(CCN3C[C@@H]4CCc5c(OC)cccc5[C@@H]4C3)c(=O)c2cc1Cl`, the Ki in assay [2] is 2.71 nM; in assay [3], 1.89 nM. Besides, the Ratio in assay [4] came out at 4.9.

As for `COc1cccc2c1CC[C@H]1CN(CCn3c(=O)[nH]c4cc([N+](=O)[O-])ccc4c3=O)C[C@@H]21`, the Ki in assay [2] is 1.2 nM; in assay [3] it was 0.91 nM. The Ratio in assay [4] is 3.65.

Take `COc1cccc2c1CC[C@H]1CN(CCn3c(=O)[nH]c4[nH]ccc4c3=O)C[C@@H]21`: the Ki in assay [2] came to 1.67 nM; in assay [3], 1.2 nM. The Ratio in assay [4] is 2.15.

As to `COc1cc2c(cc1OC)C(=O)N(CCN1C[C@@H]3CCc4c(OC)cccc4[C@@H]3C1)CC2`, the Ki was determined as 58.4 nM in assay [2] and 7.82 nM in assay [3]. For the same molecule, the Ratio in assay [4] was 7.83.

As to `COc1ccc2c(=O)n(CCN3C[C@@H]4CCc5c(OC)cccc5[C@@H]4C3)c(=O)[nH]c2c1`, the results for the inhibition constant Ki in assay [2] and in assay [3] were 0.21 nM and 0.09 nM, respectively. In addition, the Ratio in assay [4] was 7.3.

On to `COC(=O)c1cc2[nH]c(=O)n(CCN3C[C@@H]4CCc5c(OC)cccc5[C@@H]4C3)c(=O)c2s1`, for which the figures for the Ki in assay [2] and in assay [3] were 1.38 nM and 1.48 nM, respectively. Besides, the Ratio in assay [4] came out at 2.3.

With `COc1cccc2c1CC[C@H]1CN(CCn3c(=O)[nH]c4nccnc4c3=O)C[C@@H]21`, the inhibition constant Ki in assay [2] is 5.49 nM; in assay [3], 9.22 nM. Moreover, the Ratio in assay [4] came to 1.36.

Turning to `COc1cccc2c1CC[C@H]1CN(CCn3c(=O)[nH]c4cc(-c5ccccc5)sc4c3=O)C[C@@H]21`, the Ki in assay [2] is 4.4 nM; in assay [3], 7.73 nM. Also, the Ratio in assay [4] was determined as 1.5.

Turning to `COc1cc2c(cc1OC)CN(CCN1C[C@@H]3CCc4c(OC)cccc4[C@@H]3C1)CC2`, the Ki in assay [2] was determined as 83.4 nM; in assay [3], 80.7 nM. For the same molecule, the Ratio in assay [4] worked out at 1.43.

`COc1cccc2c1CC[C@H]1CN(CCn3c(=O)[nH]c4c(OC)cccc4c3=O)C[C@@H]21`: the inhibitory constant (Ki) in assay [2] turned out to be 1.15 nM; in assay [3], 0.85 nM. Moreover, the Ratio in assay [4] stood at 2.67.

With `COc1cc2c(cc1OC)NC(=O)N(CCN1C[C@@H]3CCc4c(OC)cccc4[C@@H]3C1)C2`, the inhibition constant (Ki) in assay [2] amounted to 168 nM; in assay [3], 123 nM. Also, the Ratio in assay [4] stood at 1.5.

On to `COc1cccc2c1CCC1CN(CCn3c(=O)[nH]c4ccsc4c3=O)CC21` (stereo not given), for which the Ki in assay [2] is 0.92 nM; in assay [3] it was 1.39 nM. Moreover, the Ratio in assay [4] amounted to 1.17.

Consider `COc1cccc2c1CC[C@H]1CN(CCn3c(=O)[nH]c4ncccc4c3=O)C[C@@H]21`, for which the Ki in assay [2] came to 1.99 nM.
